Measured values as given in US7544438B2, “Electron mediator, electron mediator immobilized electrode, and biofuel cell using the electrode” (Daiichi Pure Chemicals Co., Ltd, priority 2003, dated 2009).

Key:
[1] = Cyclic voltammetry (CV), redox potential of mediator molecule; type: physicochemical; conditions: 0.09 mM mediator in Tris buffer solution (pH 8.5); glassy carbon electrode; Ag|AgCl (saturated KCl) reference; 5 mV/s
Source text: [Cyclic Voltammetry (CV), Redox Potential of Mediator Molecule]
The obtained voltammogram represents the potential on an abscissa axis and the current on an ordinate axis. The CV involves relatively easy experiments and sharply reflects not only equilibrium parameters such as the redox potential or diffusion information but also kinetic parameters of an electrode reaction or of a chemical reaction in solution. Thus, the CV is a method of electrochemical measurement allowing an intuitive grasp of the electrode reaction.
The CV for mediator evaluation involves measuring in an electrolytic solution consisting of the buffer with various mediators, diaphorase, and NADH added.
A potentiostat mode of Hokuto Denko HZ-3000 was used. A glassy carbon electrode (GDE, electrode area of about 0.083 cm^2) was used as a working electrode. The GDE was polished with an aluminum powder of 0.05 μm and subjected to ultrasonic cleaning in deionized water before every measurement. A three electrode cell was used, and a Pt electrode and an Ag|AgCl (saturated KCl) electrode were used as a counter electrode and a reference electrode, respectively for the measurement. A potential was changed at a rate of 5 mV/s. A measurement sample was subjected to sufficient bubbling with N2 gas before the measurement to remove dissolved oxygen, and the N2 gas overflowed during the measurement. All measurements began from an open circuit potential.
Cyclic voltammograms with (a) in FIGS. 5A to 5F are measurement of 0.09 mM solutions of the various mediators prepared using a Tris buffer solution (pH 8.5).

[2] = system: Dp (DIAPHORASE I, [EC 1.6.99.-]); test: Reaction kinetic analysis between diaphorase (Dp) and mediator by CV; type: biochemical, Bacillus stearothermophilus; conditions: comparison of FMA with AQS, FIG. 6
Source text: A technique of reaction kinetic analysis between an enzyme and a mediator molecule using CV will be described referring to a document (Kazuyoshi Takagi, Kenji Kano, Tokuji Ikeda, J. Electroanal. Chem., 1988, 445, 211-219). Dp catalyses an oxidation reaction of NADH in the presence of an appropriate mediator (Mox) as represented by the following equation (4).
An NADH oxidation rate (νE, ox) may be represented by the following equation (5) on an assumption that an enzyme reaction follows a ping-pong mechanism.
In addition, vE, ox of equation (5) can be approximated as the following equation (6) when Mox concentration is negligibly small ([Mox]<<KM, ox) in the vicinity of the electrode surface.
From the above, kcat, ox/KM, ox clearly represents a reaction rate constant between DPred and Mox. Further, steady state limiting current of catalyst (Is, ox) observed at a more positive potential from the redox potential of the mediator molecule can be represented by the following equation (7).
The reaction rate constant kcat, ox/KM, ox can be estimated from the measured limiting current value using the above equation (7).
On the other hand, cyclic voltammograms with (b) in FIGS. 5A to 5F are measurement results of the above mediator solutions with 0.11 μM of Dp ([…], [EC 1.6.99.-], from Bacillus stearothermophilus, available from Unitika Ltd.) and 4.8 mM of NADH added. […]

Compound	redox formal potentials (E^0M′) approximated at middle points of oxidation peaks and reduction peaks [1] [V]	reaction rate constant larger than that of the AQS by [2] [digit]
CC1=C(CCCC(=O)NCCN)C(=O)c2ccccc2C1=O [AEACPVK3, 2-{3-[N-(2-aminoethyl)aminocarbonyl]propyl}-3-methyl-1,4-naphthoquinone]	−0.32	
O=C1c2ccccc2C(=O)c2cc(S(=O)(=O)[O-])ccc21.[Na+] [AQS, sodium anthraquinone-2-sulfonate]	−0.49	
OC[c-]1cccc1.[Fe+2].c1cc[cH-]c1 [FMA, ferrocene methanol]	0.23	≥ 1

More lines, main results first:

redox formal potentials (E^0M′) approximated at middle points of oxidation peaks and reduction peaks [1] [V]	Compound	reaction rate constant larger than that of the AQS by [2] [digit]
−0.32	CC1=C(CCCN)C(=O)c2ccccc2C1=O [APVK3, 2-(3-aminopropyl)-3-methyl-1,4-naphthoquinone]	
−0.32	CC1=C(CCCC(=O)O)C(=O)c2ccccc2C1=O [CPVK3, 2-(3-carboxypropyl)-3-methyl-1,4-naphthoquinone]	
−0.28	CC1=CC(=O)c2ccccc2C1=O [VK3, 2-methyl-1,4-naphthoquinone]	
